Experiments:
[1] = not given; remark: listed apart in the source
[2] = method code SF-HPLC, from PMID: 8932441; settings: pH 7.4
[3] = not given; remark: listed apart in the source
[4] = method code SF-AS, from DOI: 10.3109/00498258809055142, PMID: 3354228
[5] = method code SF-HPLC, from Huang, H.; YU, D.; Wang, C.; Shi, S.; Shi, J. (2014). Determination of apparent oil/water partition coefficient of spinosin. Yaowu fenxi zazhi, 34(3)497-499.; settings: pH 7.4
[6] = method code SF-RC, from DOI: 10.1016/0378-5173(86)90124-9
[7] = from Courrière, P.; Paubel, J.P.; Nivière, P.; Foussard-Blaspin, O. (1978). Structure-activity study in a series of local anesthetic agents. I. Physicochemical properties and molecular orbital study. …
[8] = method code SF-AS, from PMID: 7170648; settings: pH 7.4
[9] = method code SF-AS, from DOI: 10.1248/cpb.25.1350, PMID: 890858; settings: pH 6.5
[10] = method code SF, from Huang, J.; Leng, X. (1993). Interaction of rat hepatocyte and cytochrome P 450 with pyrethroids in vitro. Dong Wu Xue Bao, 39(4)418-423.
[11] = method code SF-GLC, from DOI: 10.1021/je990149u
[12] = not given; remark: listed apart in the source
[13] = method code SF-HPLC, from DOI: 10.1016/j.ijpharm.2014.07.033, PMID: 25079434; settings: pH 7.4
[14] = not given; remark: listed apart in the source
[15] = not given; remark: listed apart in the source
[16] = not given; remark: listed apart in the source
[17] = method code SF-RC, from PMID: 9639294; settings: pH 7.5
[18] = not given; remark: listed apart in the source
[19] = method code SF-HPLC, from DOI: 10.1023/a:1016359301852, PMID: 24271710
[20] = method code SF-HPLC, from PMID: 3219139; settings: pH 9.0
[21] = method code SF-EIA, from DOI: 10.1016/s0022-2275(20)42614-8, PMID: 2280184; settings: pH 1.0
[22] = method code SF-HPLC, from DOI: 10.1016/0378-5173(91)90409-h; settings: pH 7.4
[23] = method code SF-RC, from DOI: 10.1016/j.nucmedbio.2014.03.016, PMID: 24776092; settings: pH 7.4
[24] = method code SF, from DOI: 10.1016/0378-5173(85)90077-8
[25] = method code SF-AS, from PMID: 4762845; settings: pH 1.0
[26] = method code SF-HPLC, from DOI: 10.1211/0022357001774101, PMID: 10813545
[27] = not given; remark: listed apart in the source
[28] = not given; remark: listed apart in the source
[29] = method code SF-HPLC, from Xiong, Ð. (2009). Apparent partiton coefficient of hawthorn leaf flavonoids in phospholipids complex. Chinese Traditional Patent Medicine, 31(7)1075-1078.
[30] = not given; remark: listed apart in the source
[31] = not given; remark: listed apart in the source
[32] = not given; remark: listed apart in the source
[33] = not given; remark: listed apart in the source
[34] = method code SF, from DOI: 10.1016/j.bmcl.2013.12.011, PMID: 24342238
[35] = not given; remark: listed apart in the source
[36] = not given; remark: listed apart in the source
[37] = method code SF-AS, from DOI: 10.1021/ja00198a050
[38] = method code SF-RC, from DOI: 10.1016/s0022-2275(20)42614-8, PMID: 2280184; settings: pH 1.0
[39] = not given; remark: listed apart in the source

Compound Cc1cc(C(=O)Nc2ccc(-c3ccccc3S(N)(=O)=O)cc2)n(-c2ccc3onc(N)c3c2)n1 has a logP of 2.1.

For COC(=O)CC(O)CC(O)C=Cn1c(C(C)C)nc(-c2ccncc2)c1-c1ccc(F)cc1 (stereo not given), the logP [1] was 0.9.

For CCCCOC(=O)NS(=O)(=O)c1ccccc1-c1ccc(Cn2c(CCC)nc(CC)c2C(C)=O)c(F)c1, the logD [2] was 1.72.

CCCN(CCCCN1C(=O)CC2(CCCC2)CC1=O)C1COc2cccc(OC)c2C1 (stereo not given) showed a logP [3] of 4.8.

For OCCN1CCN(CCCN2c3ccccc3C=Cc3ccccc32)CC1, the logP [4] was 3.

For COc1cc2oc(-c3ccc(O)cc3)cc(=O)c2c(O)c1[C@@H]1O[C@H](CO)[C@@H](O)[C@H](O)[C@H]1O[C@@H]1O[C@H](CO)[C@@H](O)[C@H](O)[C@H]1O, the logD [5] was 0.56.

Compound CCCCC[C@H](O)/C=C/[C@@H]1[C@@H](C/C=C\CCCC(=O)OCc2ccccc2)[C@@H](O)C[C@H]1O has a logP [6] of 4.11.

Work on CCN(CC)CCCN(C(=O)Cc1ccccc1)c1c(C)cccc1C yielded a logP [7] of 4.94.

Compound CCN(CC)C(=O)N1CCN(Cc2cc(Nc3ccnc4cc(Cl)ccc34)ccc2O)CC1 has a logD [8] of 3.95.

CCC(=O)OCc1c(CSSCc2cnc(C)c(OC(=O)CC)c2COC(=O)CC)cnc(C)c1OC(=O)CC gave a logD [9] of 2.68.

CC(C)C(C(=O)OC(C#N)c1cccc(Oc2ccccc2)c1)c1ccc(OC(F)F)cc1 (stereo not given) gave a logP [10] of 5.55.

Compound CCCCCCCCCCOC(=O)c1ccccc1C(=O)OCCCCCCCCCC has a logP [11] of 9.05.

In the case of CC(=O)N(O)CCCCCNC(=O)CCC(=O)N(O)CCCCCNC(=O)CCC(=O)N(O)CCCCCN, the logP [12] is reported as -1.52.

With CNC(=O)c1cccc2c(Nc3ccc(NS(C)(=O)=O)cc3OC)c3cccc(C)c3nc12 the logD [13] was 3.26.

In the case of CCCCCCCCCCCCC(Br)C(=O)OCC1OC(n2cc(C)c(=O)[nH]c2=O)CC1N=[N+]=[N-] (stereo not given), the logP [14] is reported as 8.14.

Work on CC(C)C(NC(=O)CN1C(=O)C(NC(=O)NCc2cc[n+]([O-])cc2)CC=C1c1ccccc1)C(=O)C(F)(F)F (stereo not given) yielded a logP [15] of 1.13.

Compound CC(=O)O[C@]1(C(C)=O)CC[C@H]2[C@@H]3C[C@H](F)C4=CC(=O)CC[C@]4(C)[C@H]3CC[C@@]21C has a logP [16] of 3.48.

CCOC(=O)C1=C(COCCOCCNC(=O)C(C)(C)C)NC(C)=C(C(=O)OC)C1c1cccc(Cl)c1Cl (stereo not given) gave a logD [17] of 2.12.

Work on CCCCC(CC)COC(=O)c1ccccc1C(=O)OCC(CC)CCCC (stereo not given) yielded a logP [18] of 7.3.

C#CC1(OC(=O)c2ccn(C)c2)CCC2C3CCC4=CC(=O)CCC4C3CCC21C (stereo not given) showed a logP [19] of 4.44.

With COC(=O)C1=C(C)NC(C)=C(C(=O)O[C@@H]2CCCN(Cc3ccccc3)C2)[C@@H]1c1cccc([N+](=O)[O-])c1 (relative stereo) the logD [20] was 3.47.

C[C@H](CCC(=O)O)[C@H]1CC[C@H]2[C@@H]3C[C@H](O)[C@@H]4C[C@H](O)CC[C@]4(C)[C@H]3CC[C@]12C gave a logD [21] of 3.08.

NC(=O)[C@@H]1CCCN1C(=O)[C@H](Cc1cn(C2OC(=O)c3ccccc32)cn1)NC(=O)[C@@H]1CCC(=O)N1 (stereo not given in full) showed a logD [22] of -1.25.

With C[C@H](CCC(=O)NCc1cn(CCF)nn1)[C@H]1CC[C@H]2[C@@H]3[C@H](O)C[C@@H]4C[C@H](O)CC[C@]4(C)[C@H]3CC[C@]12C the logD [23] was 1.61.

CCCCCCCC(=O)OCC(=O)[C@@]1(O)CC[C@H]2[C@@H]3CCC4=CC(=O)CC[C@]4(C)[C@H]3C(=O)C[C@@]21C gave a logP [24] of 4.22.

With O=C(CCOCCOCCOCCOCCC(=O)Nc1c(I)cc(I)c(C(=O)O)c1I)Nc1c(I)cc(I)c(C(=O)O)c1I the logD [25] was 1.42.

In the case of C[C@]12CC[C@H]3[C@@H](CCC4=CC(=O)CC[C@@]43C)[C@@H]1CC[C@@H]2OC(=O)CCC1CCCC1, the logP [26] is reported as 4.89.

With COc1ccc(C=Cc2ccc(C=Cc3ccc(OC)c(C(F)(F)F)c3)c(O)c2)cc1C(F)(F)F the logP [27] was 7.17.

Work on N#CC(CCN1CCC(C(N)=O)(N2CCCCC2)CC1)(c1ccccc1)c1ccccc1 yielded a logP [28] of 3.91.

Compound C[C@@H]1O[C@@H](OC[C@H]2O[C@@H](Oc3c(-c4ccc(O)c(O)c4)oc4cc(O)cc(O)c4c3=O)[C@H](O)[C@@H](O)[C@@H]2O)[C@H](O)[C@H](O)[C@H]1O has a logP [29] of -0.09.

COc1cccc2c1C(=O)c1c(O)c3c(c(O)c1C2=O)C[C@@](O)(C(=O)CO)C[C@@H]3O[C@H]1C[C@H](N)[C@H](I)[C@H](C)O1 showed a logP [30] of 1.53.

COc1ccc(CCN(C)CCCC(C#N)(c2cc(OC)c(OC)c(OC)c2)C(C)C)cc1OC (stereo not given) gave a logP [31] of 3.71.

For c1cncc(-c2cnn3cc(-c4ccc(OCCN5CCCCC5)cc4)cnc23)c1, the logP [32] was 3.4.

For O=C(NNCc1ccncc1)C1CCCN1C(=O)C(Cc1ccc(Cl)c(Cl)c1)NS(=O)(=O)Cc1ccccc1 (stereo not given), the logP [33] was 2.57.

For CN(C)Cc1cc(C=CC(=O)C=C(O)C=Cc2ccc(O)c(N(C)C)c2)ccc1O, the logP [34] was 3.48.

With C[C@]12CC[C@H](O)C[C@H]1CC[C@@H]1[C@@H]2CC[C@]2(C)[C@@H](c3ccc(=O)oc3)CC[C@]12O the logP [35] was 3.34.

With c1cc2ccc3ccc4ccc5ccc6ccc1c1c2c3c4c5c61 the logP [36] was 7.64.

For CC(C)(C)c1ccc2c(c1)OCCOCCOCCOCCOCCOCCOCCOCCO2, the logP [37] was 1.89.

In the case of CC(CCC(=O)NCC(=O)O)C1CCC2C3CCC4CC(O)CCC4(C)C3CC(O)C12C (stereo in doubt), the logD [38] is reported as 2.25.

With CN1CCc2cc(Cl)c(O)cc2[C@@H](c2ccc(SCc3ccccc3)cc2)C1 the logP [39] was 3.78.

— the SangsterLogP compilation
